Reference: ChEMBL document CHEMBL3045679, “Microwave-assisted synthesis and pharmacological studies of novel 5-deazaalloxazine derivatives” (2012)
In brackets after ≈: the same amount, converted by molar mass. Activity calls are given as the source filed them. The rule behind the calls is not given here.

How the values were obtained:
Lipomyces lipofer [1] = assay: Antifungal activity against Lipomyces lipofer NCIM 3252 at 1000 ug/disk after 72 hr by disk diffusion method; type: functional; conditions: for zone of inhibition at 1000 µg/disc: NCIM 3252, 72 h, read-out: DIZ
Lipomyces lipofer [2] = assay: Antifungal activity against Lipomyces lipofer NCIM 3252 at 500 ug/disk after 72 hr by disk diffusion method; type: functional; conditions: for zone of inhibition at 500 µg/disc: NCIM 3252, 72 h, read-out: DIZ
Candida albicans [3] = assay: Antifungal activity against Candida albicans NCIM 3471 at 1000 ug/disk after 72 hr by disk diffusion method; type: functional; conditions: for zone of inhibition at 1000 µg/disc: NCIM 3471, 72 h, read-out: DIZ
Candida albicans [4] = assay: Antifungal activity against Candida albicans NCIM 3471 at 500 ug/disk after 72 hr by disk diffusion method; type: functional
Rhodotorula mucilaginosa [5] = assay: Antifungal activity against Rhodotorula mucilaginosa NCIM 3174 at 1000 ug/disk after 72 hr by disk diffusion method; type: functional; conditions: NCIM 3174, 72 h, read-out: DIZ
Rhodotorula mucilaginosa [6] = assay: Antifungal activity against Rhodotorula mucilaginosa NCIM 3174 at 500 ug/disk after 72 hr by disk diffusion method; type: functional
Aspergillus flavus [7] = assay: Antifungal activity against Aspergillus flavus NCIM 535 at 1000 ug/disk after 72 hr by disk diffusion method; type: functional; conditions: NCIM 535, 72 h, read-out: DIZ
Aspergillus flavus [8] = assay: Antifungal activity against Aspergillus flavus NCIM 535 at 500 ug/disk after 72 hr by disk diffusion method; type: functional
Aspergillus niger [9] = assay: Antifungal activity against Aspergillus niger NCIM 1196 at 1000 ug/disk after 72 hr by disk diffusion method; type: functional; conditions: NCIM 1196, 72 h, read-out: DIZ
Aspergillus niger [10] = assay: Antifungal activity against Aspergillus niger NCIM 1196 at 500 ug/disk after 72 hr by disk diffusion method; type: functional; conditions: for zone of inhibition at 500 µg/disc: NCIM 1196, 72 h, read-out: DIZ
Penicillium chrysogenum [11] = assay: Antifungal activity against Penicillium chrysogenum NCIM 707 at 1000 ug/disk after 72 hr by disk diffusion method; type: functional; conditions: for zone of inhibition at 1000 µg/disc: NCIM 707, 72 h, read-out: DIZ
Penicillium chrysogenum [12] = assay: Antifungal activity against Penicillium chrysogenum NCIM 707 at 500 ug/disk after 72 hr by disk diffusion method; type: functional
Streptomyces albus [13] = assay: Antibacterial activity against Streptomyces albus NCIM 2178 at 1000 ug/disk after 24 hr by disk diffusion method; type: functional
Streptomyces albus [14] = assay: Antibacterial activity against Streptomyces albus NCIM 2178 at 500 ug/disk after 24 hr by disk diffusion method; type: functional, organism-based
Bacillus cereus [15] = assay: Antibacterial activity against Bacillus cereus NCIM 2155 at 1000 ug/disk after 24 hr by disk diffusion method; type: functional; conditions: NCIM 2155, 24 h, read-out: DIZ
Bacillus cereus [16] = assay: Antibacterial activity against Bacillus cereus NCIM 2155 at 500 ug/disk after 24 hr by disk diffusion method; type: functional; conditions: for zone of inhibition at 500 µg/disc: NCIM 2155, 24 h, read-out: DIZ
Bacillus subtilis [17] = assay: Antibacterial activity against Bacillus subtilis NCIM 2063 at 1000 ug/disk after 24 hr by disk diffusion method; type: functional; conditions: NCIM 2063, 24 h, read-out: DIZ
Bacillus subtilis [18] = assay: Antibacterial activity against Bacillus subtilis NCIM 2063 at 500 ug/disk after 24 hr by disk diffusion method; type: functional
Klebsiella aerogenes [19] = assay: Antibacterial activity against Enterobacter aerogenes NCIM 2239 at 1000 ug/disk after 24 hr by disk diffusion method; type: functional; conditions: NCIM 2239, 24 h, read-out: DIZ
Klebsiella aerogenes [20] = assay: Antibacterial activity against Enterobacter aerogenes NCIM 2239 at 500 ug/disk after 24 hr by disk diffusion method; type: functional; conditions: for zone of inhibition at 500 µg/disc: NCIM 2239, 24 h, read-out: DIZ
Pseudomonas aeruginosa [21] = assay: Antibacterial activity against Pseudomonas aeruginosa NCIM 2200 at 1000 ug/disk after 24 hr by disk diffusion method; type: functional; conditions: NCIM 2200, 24 h, read-out: DIZ
Pseudomonas aeruginosa [22] = assay: Antibacterial activity against Pseudomonas aeruginosa NCIM 2200 at 500 ug/disk after 24 hr by disk diffusion method; type: functional
Escherichia coli [23] = assay: Antibacterial activity against Escherichia coli NCIM 2065 at 1000 ug/disk after 24 hr by disk diffusion method; type: functional; conditions: NCIM 2065, 24 h, read-out: DIZ
Escherichia coli [24] = assay: Antibacterial activity against Escherichia coli NCIM 2065 at 500 ug/disk after 24 hr by disk diffusion method; type: functional; conditions: for zone of inhibition at 500 µg/disc: NCIM 2065, 24 h, read-out: DIZ
Bacillus subtilis [25] = assay: Antibacterial activity against Bacillus subtilis NCIM 2063 after 24 hr by broth dilution assay; type: functional; conditions: NCIM 2063, 24 h
Klebsiella aerogenes [26] = assay: Antibacterial activity against Enterobacter aerogenes NCIM 2239 after 24 hr by broth dilution assay; type: functional; conditions: NCIM 2239, 24 h
Pseudomonas aeruginosa [27] = assay: Antibacterial activity against Pseudomonas aeruginosa NCIM 2200 after 24 hr by broth dilution assay; type: functional; conditions: NCIM 2200, 24 h
Escherichia coli [28] = assay: Antibacterial activity against Escherichia coli NCIM 2065 after 24 hr by broth dilution assay; type: functional; conditions: NCIM 2065, 24 h
Lipomyces lipofer [29] = assay: Antifungal activity against Lipomyces lipofer NCIM 3252 after 72 hr by broth dilution assay; type: functional; conditions: NCIM 3252, 72 h
Aspergillus niger [30] = assay: Antifungal activity against Aspergillus niger NCIM 1196 after 72 hr by broth dilution assay; type: functional; conditions: NCIM 1196, 72 h
Bacillus cereus [31] = assay: Antibacterial activity against Bacillus cereus NCIM 2155 after 24 hr by broth dilution assay; type: functional; conditions: NCIM 2155, 24 h
Candida albicans [32] = assay: Antifungal activity against Candida albicans NCIM 3471 after 72 hr by broth dilution assay; type: functional; conditions: NCIM 3471, 72 h
Rhodotorula mucilaginosa [33] = assay: Antifungal activity against Rhodotorula mucilaginosa NCIM 3174 after 72 hr by broth dilution assay; type: functional; conditions: NCIM 3174, 72 h

Row | MIC (Bacillus subtilis [25]) | MIC (Klebsiella aerogenes [26]) | MIC (Pseudomonas aeruginosa [27]) | MIC (Escherichia coli [28]) | MIC (Aspergillus niger [30]) | MIC (Bacillus cereus [31]) | Structure (SMILES) | zone of inhibition at 1000 µg/disc (Lipomyces lipofer [1]) | zone of inhibition at 500 µg/disc (Lipomyces lipofer [2]) | diameter of the inhibition zone (DIZ) (Candida albicans [4]) | zone of inhibition at 1000 µg/disc (Rhodotorula mucilaginosa [5]) | zone of inhibition at 1000 µg/disc (Aspergillus flavus [7]) | diameter of the inhibition zone (DIZ) (Aspergillus flavus [8]) | zone of inhibition at 1000 µg/disc (Aspergillus niger [9]) | diameter of the inhibition zone (DIZ) (Penicillium chrysogenum [12]) | diameter of the inhibition zone (DIZ) (Streptomyces albus [14]) | zone of inhibition at 1000 µg/disc (Bacillus cereus [15]) | zone of inhibition at 1000 µg/disc (Bacillus subtilis [17]) | zone of inhibition at 1000 µg/disc (Klebsiella aerogenes [19]) | zone of inhibition at 1000 µg/disc (Pseudomonas aeruginosa [21]) | zone of inhibition at 1000 µg/disc (Escherichia coli [23]) | other results
1 | 31.2 µg/mL (≈ 128 µM) | 7.8 µg/mL (≈ 32.1 µM) | 62.5 µg/mL (≈ 257 µM) | 31.2 µg/mL (≈ 128 µM) | 3.9 µg/mL (≈ 16 µM) | 62.5 µg/mL (≈ 257 µM) | Cc1ccc2nc3[nH]c(=S)[nH]c(=O)c3cc2c1 | 10 mm | 9 mm | inactive | 9 mm | 8 mm | inactive | 14 mm | inactive | inactive | 10 mm | 12 mm | 13 mm | 12 mm | 11 mm | diameter of the inhibition zone (DIZ) (Candida albicans [3]): inactive; diameter of the inhibition zone (DIZ) (Rhodotorula mucilaginosa [6]): inactive; zone of inhibition at 500 µg/disc (Aspergillus niger [10]): 11 mm; diameter of the inhibition zone (DIZ) (Penicillium chrysogenum [11]): inactive; zone of inhibition at 1000 µg/disc (Streptomyces albus [13]; NCIM 2178, 24 h, read-out: DIZ): 9 mm; zone of inhibition at 500 µg/disc (Bacillus cereus [16]): 8 mm; diameter of the inhibition zone (DIZ) (Bacillus subtilis [18]): inactive; zone of inhibition at 500 µg/disc (Klebsiella aerogenes [20]): 9 mm; diameter of the inhibition zone (DIZ) (Pseudomonas aeruginosa [22]): inactive; zone of inhibition at 500 µg/disc (Escherichia coli [24]): 9 mm; MIC (Lipomyces lipofer [29]): 62.5 µg/mL (≈ 257 µM)
2 | 3.9 µg/mL (≈ 14.8 µM) | 31.2 µg/mL (≈ 118 µM) | 7.8 µg/mL (≈ 29.6 µM) | 62.5 µg/mL (≈ 237 µM) | 3.9 µg/mL (≈ 14.8 µM) | 62.5 µg/mL (≈ 237 µM) | O=c1[nH]c(=S)[nH]c2nc3ccc(Cl)cc3cc12 | 15 mm | 9 mm | inactive | 12 mm | 10 mm | inactive | 14 mm | inactive | inactive | 13 mm | 14 mm | 10 mm | 13 mm | 10 mm | zone of inhibition at 1000 µg/disc (Candida albicans [3]): 11 mm; diameter of the inhibition zone (DIZ) (Rhodotorula mucilaginosa [6]): inactive; zone of inhibition at 500 µg/disc (Aspergillus niger [10]): 11 mm; zone of inhibition at 1000 µg/disc (Penicillium chrysogenum [11]): 10 mm; diameter of the inhibition zone (DIZ) (Streptomyces albus [13]): inactive; zone of inhibition at 500 µg/disc (Bacillus cereus [16]): 9 mm; zone of inhibition at 500 µg/disc (Bacillus subtilis [18]; NCIM 2063, 24 h, read-out: DIZ): 11 mm; zone of inhibition at 500 µg/disc (Klebsiella aerogenes [20]): 8 mm; zone of inhibition at 500 µg/disc (Pseudomonas aeruginosa [22]; NCIM 2200, 24 h, read-out: DIZ): 10 mm; zone of inhibition at 500 µg/disc (Escherichia coli [24]): 8 mm; MIC (Lipomyces lipofer [29]): 7.8 µg/mL (≈ 29.6 µM)
3 | 62.5 µg/mL (≈ 257 µM) | 62.5 µg/mL (≈ 257 µM) | 62.5 µg/mL (≈ 257 µM) | 7.8 µg/mL (≈ 32.1 µM) | 125 µg/mL (≈ 514 µM) | 31.5 µg/mL (≈ 130 µM) | COc1cccc2cc3c(=O)[nH]c(=O)[nH]c3nc12 | – | – | inactive | 10 mm | 8 mm | inactive | 11 mm | inactive | inactive | 12 mm | 10 mm | 8 mm | 10 mm | 12 mm | diameter of the inhibition zone (DIZ) (Lipomyces lipofer [1]): inactive; diameter of the inhibition zone (DIZ) (Lipomyces lipofer [2]): inactive; zone of inhibition at 1000 µg/disc (Candida albicans [3]): 12 mm; zone of inhibition at 500 µg/disc (Rhodotorula mucilaginosa [6]; NCIM 3174, 72 h, read-out: DIZ): 8 mm; diameter of the inhibition zone (DIZ) (Aspergillus niger [10]): inactive; zone of inhibition at 1000 µg/disc (Penicillium chrysogenum [11]): 8 mm; diameter of the inhibition zone (DIZ) (Streptomyces albus [13]): inactive; diameter of the inhibition zone (DIZ) (Bacillus cereus [16]): inactive; diameter of the inhibition zone (DIZ) (Bacillus subtilis [18]): inactive; diameter of the inhibition zone (DIZ) (Klebsiella aerogenes [20]): inactive; diameter of the inhibition zone (DIZ) (Pseudomonas aeruginosa [22]): inactive; diameter of the inhibition zone (DIZ) (Escherichia coli [24]): inactive; MIC (Candida albicans [32]): 125 µg/mL (≈ 514 µM); MIC (Rhodotorula mucilaginosa [33]): 31.2 µg/mL (≈ 128 µM)
